Source: PMC12040169 (PLOS Biology, 2025)

Experiment: in vitro
Settings: human, hela cells, % viability

Compound	viability at 28.5 h, 10 µM [%]
CC(=O)Nc1nn(Cc2cc3c(cc2Cl)OCO3)c2ccccc12 [CBK048251]	96.5
O=C(COc1ccc2c(c1)OCO2)NCc1ccccn1 [CBK269983]	95.3
Cc1ccc2c(c1)C1(CC(=O)N(C)C1=O)C(=O)N2CCCOc1ccccc1 (centres unmarked) [CBK075496]	98.2
O=c1cc(Nc2ccc3c(c2)OCO3)[nH]c(=O)n1-c1ccc(Cl)cc1 [CBK287507]	86.6
CN(C(=O)CN1CCN(c2cc(-c3cc(C(F)(F)F)cc(C(F)(F)F)c3)ncn2)CC1)c1ccccc1 [CBK091125]	103
O=C(NCCc1ccccc1)C1CCN(C(=O)c2cccc(F)c2)CC1 [CBK307583]	82.2
O=C(O)COc1ccc(-c2nnn(CC(=O)O)n2)cc1 [CBK267124]	87.6
O=C1CN(C(=O)NCC2COc3ccccc3O2)CCN1 (centres unmarked) [CBK155847]	88.3
Cc1ccc(C(=O)NNC(=O)c2cccnc2)cc1 [CBK261045]	94
COc1cc(-c2nc(N)cc3ccccc23)cc(OC)c1OC [CBK085726]	102
Cc1nn(CC(=O)N(C)C2CCCCC2)c(=O)c2cc3occc3n12 [CBK283653]	92.4
COc1ccc(CN(C(=O)c2cccc(-n3cnnn3)c2)C2CC2)cc1 [CBK256997]	91.6
Cn1c(CN2CCN(S(C)(=O)=O)CC2)nc2cc([N+](=O)[O-])ccc21 [CBK268362]	98.4
COc1cccc2c3c([nH]c12)C1(CCN(CCCC#N)CC1)N(C(C)=O)CC3 [CBK039722]	99.6
CCN1CCN(C(=O)CN(CC)S(=O)(=O)c2ccc(Cl)cc2)CC1 [CBK268461]	88.4
O=C(CCCC1CC1)N1CCn2c(nnc2-c2cncc(Br)c2)C1 [CBK304767]	96.4
COc1cc(C(=O)Nc2ccc3[nH]ccc3c2)cc(OC)c1OC [CBK159696]	92.9
COC(=O)c1ccc(S(N)(=O)=O)o1 [CBK113186]	105
Cc1cc(C(F)(F)F)c2c(NC/C=C/c3ccco3)n[nH]c2n1 [CBK283651]	92.7
Cc1ccnc(Sc2nc3c(c(=O)[nH]c(=O)n3C)n2CCCc2ccccc2)n1 [CBK269353]	79.4
CN1CCC(N(C)C(=O)c2ccc3nccnc3c2)CC1 [CBK269096]	108
NC(=O)c1ccc(NC(=O)N2CCc3ccccc3C2)cc1 [CBK155299]	80.9
COc1cc(/C=C/C(=O)NCc2ccc(C(=O)O)cc2)ccc1O [CBK286728]	86.4

Compound	viability at 28.5 h, 10 µM [%]
Cc1ccc([N+](=O)[O-])cc1NC(=O)C1Cc2ccccc2CN1C(=O)OCc1ccccc1 (centres unmarked) [CBK262463]	100
CCOC(=O)c1[nH]c2ccccc2c1NC(C)=O [CBK086755]	92.7
Cc1ccccc1CSCCNC(=O)Nc1ccc(Cl)cc1 [CBK268669]	101
O=C(Nc1ccc2ncccc2c1)c1cccc(F)c1Cl [CBK159800]	85.9
Cc1noc(C)c1S(=O)(=O)Nc1cccc(C(=O)O)c1 [CBK038902]	102
CCCCNc1cc(N2CCN(c3cnn(C)c3)C(=O)C2)nc(N)n1 [CBK306260]	87.8
CC(C)Nc1cncc(OCCCN(C)C)n1 [CBK115600]	105
Cc1ccc(S(=O)(=O)N(CC(=O)Nc2ccc3c(c2)OCCO3)Cc2ccccc2F)cc1 [CBK265157]	83.3
O=C(O)CN1C(=O)C(O)=C(C(=O)c2ccc(Cl)cc2)C1c1ccccc1[N+](=O)[O-] (centres unmarked) [CBK263794]	98.5
c1ccc(CC(NCc2c[nH]c3ccccc23)c2ccccc2)cc1 (centres unmarked) [CBK262087]	96.4
O=C(C1=C(O)C(=O)N(CCCN2CCOCC2)C1c1ccc(Cl)c(Cl)c1)c1cccs1 (centres unmarked) [CBK264565]	104
Cc1onc(-c2ccccc2)c1CNC(=O)Cn1cc(C)c(=O)[nH]c1=O [CBK144094]	87.6
CN(Cc1ccccc1)Cc1c(C2CCNCC2)[nH]c2ncccc12 [CBK285083]	96
CCn1ncc(CN2CCCCCC2c2cc(C)on2)c1C (centres unmarked) [CBK282141]	91.7
c1ccc2c(CN3CCCNCC3)cccc2c1 [CBK028773]	81
CN1C(=O)CC2(C1=O)C(=O)N(CC(=O)O)c1ccc(Cl)cc12 (centres unmarked) [CBK076107]	98.8
CCCC(=O)N[C@@H](C)Cn1c(C(F)(F)F)cc2cccnc21 [CBK283232]	92.7
O=C(CN1C(=O)N2CCCN=C2c2ccccc21)N1CCCCC1 [CBK284395]	85.8
O=C(O)CNS(=O)(=O)c1c(F)c(F)c(F)c(F)c1F [CBK269986]	84.6
CCC(C)(NC=O)C(=O)Nc1ccccc1C(=O)O (centres unmarked) [CBK287177]	97
COc1cc(C)nc(N2CCN(C(=O)CCc3ccsc3)CC2)n1 [CBK304572]	87.6
COC(=O)CCC1(C)CN(C)CCC1=O (centres unmarked) [CBK028494]	85
O=C(Nc1ccc(Cl)c(Cl)c1)N1CCN(c2n[nH]c(=O)[nH]c2=O)CC1 [CBK297514]	89.4

Compound	viability at 28.5 h, 10 µM [%]
COc1ccc(-c2ccc(=O)n(CC(=O)NCc3ccc(C(=O)O)cc3)n2)c(F)c1 [CBK286776]	91.5
CCOC(=O)CN(C)Cc1ccccc1Br [CBK261891]	108
O=S(=O)(Nc1cccc(C(F)(F)F)c1)c1ccc(N2CCCNCC2)c2ccccc12 [CBK003929C]	86.4
O=C(NCc1ccc2c(c1)OCO2)[C@H]1CN2CCC1C[C@@H]2Cn1cc(-c2ccccn2)nn1 (some centres unmarked) [CBK289082]	102
Cc1ccc(-c2nc(Nc3ccc(F)cc3)sc2CC(=O)O)cc1 [CBK264286]	89.4
C=C(C)Cn1c(SCC(C)C)nnc1-c1ccccc1Cl [CBK200078]	92.4
O=C(Nc1ccc(Cl)c(Cl)c1)c1cnc2n(c1=O)CCS2 [CBK287381]	108
Cc1cccnc1C(Cc1ccsc1)NC(=O)CCc1ccno1 (centres unmarked) [CBK284804]	86.7
COc1ccc(Cc2cccc(C3CCN(C(=O)Cc4ccc(F)cc4)CC3)n2)cc1 [CBK286225]	95.6
CC(=O)Nc1ccc(S(=O)(=O)N(C)CC(=O)O)cc1 [CBK267570]	97.8
O=C1CC(C(=O)N2CCN(c3ncccn3)CC2)c2ccccc21 (centres unmarked) [CBK144505]	99.2
Cc1ccc(NC(=O)c2cc(NC(=O)C3CC=CCC3C(=O)O)ccc2N2CCOCC2)cc1Cl (centres unmarked) [CBK265323]	105
O=[N+]([O-])c1cccc(S(=O)(=O)NCc2ccccn2)c1 [CBK263669]	98.4
Cc1cnc(C)c(N2CCN(C(=O)NCCSc3nncn3C)CC2)n1 [CBK306531]	92.9
c1cc(CNCCN2CCOCC2)cs1 [CBK001894]	105
CS(=O)(=O)Nc1nccnc1-c1ccc2c(c1)OCO2 [CBK050934]	95.1
Cc1ccc(C(=O)O)cc1NS(=O)(=O)c1ccc2c(c1)OCCO2 [CBK297497]	90.7
CCOC(=O)N1COC[C@@H]1C(=O)O [CBK010379]	81.5
Cc1occc1-c1nnc(SC2CCCCN(C(=O)c3ccc(Cl)cc3)C2=O)n1C (centres unmarked) [CBK296990]	97.9
Cc1cc(C)n(CC2CCCN2CCc2ccccn2)n1 (centres unmarked) [CBK304846]	100
O=C(c1ccc2nccnc2c1)N1CCCc2ccccc21 [CBK200257]	95.3
O=C(Cn1ccc(=O)[nH]c1=O)NCc1cccnc1OCC(F)(F)F [CBK304565]	90.5
COCC1(C(=O)N2CCN(c3ccccc3C#N)CC2)CCC1 [CBK304361]	93

Compound	viability at 28.5 h, 10 µM [%]
COc1ccc(-c2noc([C@@H]3C[C@H](NS(=O)(=O)Cc4ccccc4)CN3C)n2)cc1 [CBK288863]	93.2
CCCc1cn(C2CCN(c3cc(-n4cc(C)cn4)ncn3)CC2)nn1 [CBK307127]	104
O=C(O)c1ccc(/C=N/c2ccc(S(=O)(=O)c3ccc(/N=C/c4ccc(C(=O)O)cc4)cc3)cc2)cc1 [CBK262038]	92.4
COc1cc(/C=C(\C#N)c2nc3ccccc3n2C)cc([N+](=O)[O-])c1O [CBK263893]	91.4
O=C(Nc1nc(-c2cccc([N+](=O)[O-])c2)cs1)c1ccc(S(=O)(=O)N2CCCC2)cc1 [CBK102813]	86.5
CC(C)(CN1CCCC1)CN1CCC(O)(c2ccccc2F)CC1 [CBK282798]	93.4
OCCN(Cc1ccccc1)Cc1ccc(-c2ccccc2)cc1 [CBK261883]	102
O=C(Nc1cccc(C(=O)O)c1)Nc1cccc(-c2ccccc2)c1 [CBK155451G]	93.5
COCCCN(Cc1ccccn1)Cc1cccc(F)c1F [CBK282947]	84.5
CC(=O)Nc1nonc1-c1nc2ccccc2n1CCC#N [CBK062641]	100
CSc1nc2ccc(NS(=O)(=O)c3ccc(Cl)c(C(=O)O)c3)cc2s1 [CBK297541]	82.6
CCCc1nn(CC(=O)NC2CCC2)c(=O)c2cc3ccsc3n12 [CBK284194]	89.1
CCOC(=O)c1cnn(-c2ccccc2)c1NS(=O)(=O)c1cccc(Cl)c1C [CBK024055]	84.6
Cc1cccc(C)c1N1CCN(CCn2c(=S)[nH]c3ccccc3c2=O)CC1 [CBK267998]	89.9
Cc1cc(=O)oc(-c2ccccc2)c1C#N [CBK004842]	95
O=C(NCc1ccc2c(c1)OCO2)c1cnc(-c2ccc(Cl)cc2)c(-c2ccco2)c1 [CBK037547]	98.3
O=C(O)c1cccc(NC(=S)NC(=O)c2cccnc2)c1 [CBK265739]	94.5
COc1ccc(F)c(CN(CC2CCNCC2)C(=O)Nc2c(C)noc2C)c1 [CBK049811]	112
CC(NS(=O)(=O)c1ccc(OCC(=O)N2CCc3ccccc3C2)c(Cl)c1)c1ccccc1 (centres unmarked) [CBK269117]	92
Cc1cc(C)n(CCCC(=O)N2CCc3ncc(Cl)cc3C2)n1 [CBK284852]	103
